Data as given in patent US20090170880A1, “Methods and Means for the Treatment of Cancer” (priority 2007, published 2009).

Columns and labels:
murine Bcrp1 = target: T1, murine Bcrp1 (Mus musculus, UniProt Q7TMS5); test: Transwell transport of temozolomide, MDCKII-Bcrp1 cells, without or with inhibitors; assay type: in vitro ADME; details: MDCKII-Bcrp1 cells
T1 construct: expressed in transfected cells; host or cells: MDCKII (canine kidney) cells transduced with murine Bcrp1
T1 sequence (Q7TMS5 1-657): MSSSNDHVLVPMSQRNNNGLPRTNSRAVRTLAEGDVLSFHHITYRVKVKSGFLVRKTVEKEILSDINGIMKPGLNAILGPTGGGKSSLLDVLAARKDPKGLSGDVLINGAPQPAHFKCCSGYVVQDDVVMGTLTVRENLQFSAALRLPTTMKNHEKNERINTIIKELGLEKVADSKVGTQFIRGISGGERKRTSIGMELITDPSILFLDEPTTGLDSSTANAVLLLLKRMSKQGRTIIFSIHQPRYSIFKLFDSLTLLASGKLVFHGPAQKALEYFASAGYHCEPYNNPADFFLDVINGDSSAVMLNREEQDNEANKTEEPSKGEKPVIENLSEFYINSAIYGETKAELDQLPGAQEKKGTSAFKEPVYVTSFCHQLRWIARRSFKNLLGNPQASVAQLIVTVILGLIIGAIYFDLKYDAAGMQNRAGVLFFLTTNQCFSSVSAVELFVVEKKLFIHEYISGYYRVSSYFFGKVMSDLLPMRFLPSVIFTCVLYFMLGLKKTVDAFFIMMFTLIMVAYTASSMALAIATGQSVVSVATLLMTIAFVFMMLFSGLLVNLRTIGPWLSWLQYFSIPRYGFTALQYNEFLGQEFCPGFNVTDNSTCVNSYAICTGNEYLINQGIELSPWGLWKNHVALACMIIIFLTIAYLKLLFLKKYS
Description: The parental LLC pig-kidney (PK1) cell line and sublines transduced with murine Mdr1a or human MDR1 (12) and the parental Madine Darby Canine Kidney (MDCK) and murine Bcrp1 or human BCRP transduced sublines (13) were seeded on Transwell microporous polycarbonate membrane filters (3.0 μm pore size, 24 mm diameter; Costar Corning, N.Y., USA) at a density of 1×10^6 cells per well in 2 ml of MEM medium (Invitrogen Corporation, Carlsbad, Calif.) containing 10% v/v fetal calf serum. Cells were incubated at 37° C. in 5% CO2 for three days with one medium replacement after the first day. Two hours before the start of the experiment the medium in both compartments was replaced with 2 ml of OptiMEM medium (InVitrogen Corp.). At the start of the experiment the medium in the apical or basolateral compartment was replaced with 2 ml of freshly prepared OptiMEM medium containing 40 μg/ml of temozolomide. […] Zosuquidar (LY335979, 5 μM) was always added to the medium when doing experiments with MDCK cell lines to inhibit endogenous canine P-gp. Samples of 50 μl were collected every 30 min, for up to 2 h after start of the experiment. Because temozolomide is instable in medium at 37° C., we replaced one ml of the donor compartment by a freshly prepared aliquot every 30 min. [^3H]-inulin (approximately 7 kBq per well) was added to the same compartment as temozolomide to check the integrity of the cell layer. Wells showing a leakage of more than 1.5% per hour were excluded.
First, we took samples every 30 min for up to 2 h instead of every hour for up to 4 h. Secondly, to maintain adequate temozolomide levels at the donor side throughout the experiment we replaced 1 ml of the 2 ml of medium at the donor side of the transwell at each sampling time by 1 ml of a freshly prepared temozolomide solution in medium.

P-gp [1] = test: Transwell control experiments with radioactively labeled P-gp and BCRP substrates; assay type: in vitro ADME; details: inhibitor 20 μM, radiolabeled substrates, results not shown
Description: Similar experiments were conducted in the parental canine MDCK cells and its transduced murine Bcrp1 or human BCRP sublines. […] Together with these experiments we ran control experiments using well-established P-gp and BCRP substrates that were available to us as radioactively labeled compounds (^14C-trabectedin and ^14C-Indisulan, or ^14C-topotecan). […] Moreover, the integrity of all monolayers was checked using ^3H-inuline as marker compound. Wells showing more than 1.5% translocation of inuline per 30 min were considered to be leaky and excluded from the analysis.

P-gp and BCRP = test: Temozolomide brain and plasma levels at 2 h with or without oral inhibitor; assay type: in vivo; details: wild-type mice, inhibitor 100 mg/kg oral, 2 h after temozolomide
Description: The mice were anesthetized with metoxyflurane and blood samples were obtained by cardiac puncture and collected on ice in tubes containing potassium EDTA as anticoagulant. […] Immediately after cardiac puncture the mice were killed by cervical dislocation and the brains were dissected and placed on ice. Within 60 min they were weighed and homogenized in 3 ml of ice-cold 1% of BSA in 0.05 M phosphate buffer adjusted to pH 2 and stored at −20° C. until further analysis. […] The brain-to-plasma ratio was calculated for each individual animal. The two-sided unpaired Student's t-test was used for statistical analysis of AUC values. Bonferroni's test for multiple comparisons was calculated using SPSS (v12.0.1; […]

[2] = in vivo; cited from earlier work
P-gp [3] = target: T2, P-gp (Mus musculus, UniProt P21447); details: Mdr1ab knockout mice; cited from earlier work
T2 construct: host or cells: mice (Mdr1ab knockout versus wild type)
T2 sequence (P21447 whole entry): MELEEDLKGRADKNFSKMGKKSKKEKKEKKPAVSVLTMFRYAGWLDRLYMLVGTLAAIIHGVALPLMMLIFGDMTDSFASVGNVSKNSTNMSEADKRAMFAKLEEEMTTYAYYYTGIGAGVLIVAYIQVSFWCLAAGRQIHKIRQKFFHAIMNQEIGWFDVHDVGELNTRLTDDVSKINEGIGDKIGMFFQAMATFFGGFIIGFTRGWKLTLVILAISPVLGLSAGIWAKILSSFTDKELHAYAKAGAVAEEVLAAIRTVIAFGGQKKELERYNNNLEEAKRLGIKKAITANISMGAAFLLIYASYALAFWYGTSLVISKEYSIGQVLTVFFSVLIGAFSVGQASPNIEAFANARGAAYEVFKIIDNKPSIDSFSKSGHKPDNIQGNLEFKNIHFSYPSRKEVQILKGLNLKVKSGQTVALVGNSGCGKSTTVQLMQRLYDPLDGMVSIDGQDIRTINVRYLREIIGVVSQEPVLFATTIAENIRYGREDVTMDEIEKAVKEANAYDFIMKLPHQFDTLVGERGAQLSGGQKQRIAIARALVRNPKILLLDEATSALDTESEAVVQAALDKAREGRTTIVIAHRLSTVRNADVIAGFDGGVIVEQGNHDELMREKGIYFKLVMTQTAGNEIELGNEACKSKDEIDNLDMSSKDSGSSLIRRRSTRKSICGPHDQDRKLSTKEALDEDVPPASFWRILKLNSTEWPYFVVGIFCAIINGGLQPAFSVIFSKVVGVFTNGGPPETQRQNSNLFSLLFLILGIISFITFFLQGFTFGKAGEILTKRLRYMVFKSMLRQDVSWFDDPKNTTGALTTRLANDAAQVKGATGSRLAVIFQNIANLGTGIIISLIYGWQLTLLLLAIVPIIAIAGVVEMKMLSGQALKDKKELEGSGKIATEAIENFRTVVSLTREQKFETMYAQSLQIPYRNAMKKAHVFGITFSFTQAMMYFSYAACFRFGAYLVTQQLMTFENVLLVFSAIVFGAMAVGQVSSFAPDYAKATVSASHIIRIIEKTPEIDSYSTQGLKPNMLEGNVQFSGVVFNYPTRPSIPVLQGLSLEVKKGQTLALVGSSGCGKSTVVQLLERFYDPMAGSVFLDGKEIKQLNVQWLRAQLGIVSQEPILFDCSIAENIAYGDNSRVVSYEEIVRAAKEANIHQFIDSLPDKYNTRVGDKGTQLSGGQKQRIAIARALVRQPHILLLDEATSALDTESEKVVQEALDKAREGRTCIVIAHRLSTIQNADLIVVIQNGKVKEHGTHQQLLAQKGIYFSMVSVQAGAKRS

[4] = system: intracranial Mel57-luc tumor xenografts; test: Efficacy against intracranial Mel57-luc tumor xenografts; assay type: in vivo, nude mice; details: wild-type nude mice, elacridar oral 100 mg/kg/day×5 20-30 min before temozolomide oral 100 mg/kg/day×5
Description: Intracranial Mel57-luc (luciferase transfected subline) tumor xenografts in wild-type nude mice (WT) and mdr1ab knockout nude mice (MDR) were established according to the protocol below (see Kemper et al, Eur J Cancer 42:3294-3303, 2006).
The Mel57 cell line (University Medical Centre, Nijmegen, The Netherlands) is a human melanoma cell line and was cultured in MEM (Life Technologies Inc., Breda, The Netherlands) supplemented with 10% foetal calf serum, non-essential amino acids, streptomycin, penicillin and sodium pyruvate (all Life Technologies), and incubated at 37° C. and 5% CO2 in humidified air. The cell line was further transfected by standard protocols with lipofectamine using a pBS vector containing a β-actin driven luciferase gene coupled via an internal ribosome […] to GFP. After expansion, GFP bright cells were sorted to single cells by FACS, expanded and sublines tested for luciferase expression by an in vitro bioluminescence assay (Promega, Benelux BV, Leiden, The Netherlands). Three to five sublines showing the highest luminescence activity were tested in vivo for tumour take and intracranial growth behaviour. To retrieve tumour cells for injection, the cell culture was trypsinised (trypsin 0.05%; EDTA 0.02%, Life Technologies), washed two times with Hanks Balanced Saline Solution (HBSS, Life Technologies Inc.), counted and resuspended in an appropriate volume of HBSS. The single cell suspension was kept on ice until injection. […]
Mel57-luc cells (100,000 cells/2 μl) were injected stereotactically in the brain as described in detail in Kemper et al^14. […] The amount of bioluminescence in each animal was calculated relative to the first measurement when therapy was initiated (arbitrarily set at 100%) and was log converted prior to data analysis. Tumor volume was measured by bioluminescence activity (see Kemper et al, Eur J Cancer 42:3294-3303, 2006).

For `COc1cc2ncnc(Nc3ccc(F)c(Cl)c3)c2cc1OCCCN1CCOCC1` [gefitinib], the “effect on Bcrp1 mediated transport of temozolomide” value (“effect on Bcrp1 mediated transport” below) (murine Bcrp1; inhibitor 10 μM) was “(almost) completely abrogated”, the “inhibition of P-gp mediated transport” value (P-gp [1]) was “sufficient” and the “effect on temozolomide plasma level” value (P-gp and BCRP) was “significantly increased”.
In the case of `CO[C@@H]1[C@@H](OC(N)=O)[C@@H](O)[C@H](Oc2ccc3c(O)c(NC(=O)c4ccc(O)c(CC=C(C)C)c4)c(=O)oc3c2C)OC1(C)C` [novobiocin], the “effect on Bcrp1 mediated transport” value (murine Bcrp1; inhibitor 50 μM) is reported as “not sufficient”.
In the case of `Cc1ccc(NC(=O)c2ccc(CN3CCN(C)CC3)cc2)cc1Nc1nccc(-c2cccnc2)n1` [imatinib], the oral bioavailability [2] is listed as > 90%.
In the case of `CC(=O)O[C@H]1C(=O)[C@@]2(C)[C@H]([C@H](OC(=O)c3ccccc3)[C@]3(O)C[C@H](OC(=O)[C@H](O)[C@@H](NC(=O)c4ccccc4)c4ccccc4)C(C)=C1C3(C)C)[C@]1(OC(C)=O)CO[C@@H]1C[C@@H]2O` [paclitaxel], the “brain-to-plasma ratio relative to wild-type controls” value (P-gp [3]) is given as “more than 5 fold”.
For `COc1cc2c(cc1OC)CN(CCc1ccc(NC(=O)c3cccc4c(=O)c5cccc(OC)c5[nH]c34)cc1)CC2` [elacridar], the “effect on Bcrp1 mediated transport” value (murine Bcrp1; inhibitor 5 μM) was “(almost) completely abrogated” and the “efficacy of temozolomide with elacridar versus temozolomide alone” value [4] was “more effective than temozolomide alone”.
With `C#Cc1cccc(Nc2ncnc3cc(OCCOC)c(OCCOC)cc23)c1` [erlotinib] the “effect on Bcrp1 mediated transport” value (murine Bcrp1; inhibitor 10 μM) was “(almost) completely abrogated”.
